Data taken from PMC4107924, “Structure and function study of the complex that synthesizes S-adenosylmethionine” (IUCrJ, 2014).

Key:
Assay type in all cases: binding
MAT(α2)4(βV2)2 [1] = biological target: T1, MAT(α2)4(βV2)2 (Homo sapiens, UniProt P31153); assay: X-ray crystal structure, […] Å; settings: crystal co-crystallized and soaked with AMPPNP and methionine; SAMe also bound; Mg
T1 construct: gene MAT2A; recombinant in E. coli BL21(DE3), assembled in vitro; His tags cut (TEV for MATα2, thrombin for MATβV2); 258 kDa, 4:2 complex; with Methionine adenosyltransferase 2 subunit beta
T1 sequence (P31153 whole entry): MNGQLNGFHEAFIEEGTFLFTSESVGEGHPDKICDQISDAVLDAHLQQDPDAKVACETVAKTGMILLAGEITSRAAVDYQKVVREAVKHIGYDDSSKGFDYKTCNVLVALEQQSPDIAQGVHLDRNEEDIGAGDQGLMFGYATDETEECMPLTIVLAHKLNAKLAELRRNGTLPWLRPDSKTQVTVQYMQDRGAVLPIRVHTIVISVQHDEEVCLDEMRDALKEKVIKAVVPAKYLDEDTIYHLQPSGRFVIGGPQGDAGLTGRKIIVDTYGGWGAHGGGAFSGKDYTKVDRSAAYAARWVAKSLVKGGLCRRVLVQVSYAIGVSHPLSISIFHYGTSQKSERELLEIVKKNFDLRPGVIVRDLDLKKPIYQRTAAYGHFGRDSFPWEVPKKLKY
T1 sequence (Q9NZL9 21-334 partner limits assumed): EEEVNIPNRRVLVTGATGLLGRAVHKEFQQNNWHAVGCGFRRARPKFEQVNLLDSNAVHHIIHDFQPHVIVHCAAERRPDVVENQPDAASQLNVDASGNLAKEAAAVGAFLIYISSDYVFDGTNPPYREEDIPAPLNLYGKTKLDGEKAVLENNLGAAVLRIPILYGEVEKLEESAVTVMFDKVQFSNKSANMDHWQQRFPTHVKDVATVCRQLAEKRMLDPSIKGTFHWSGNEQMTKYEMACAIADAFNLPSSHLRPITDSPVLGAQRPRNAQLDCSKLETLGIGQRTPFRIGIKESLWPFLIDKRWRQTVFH

MAT(α2)4(βV2)2 [2] = biological target: T1, MAT(α2)4(βV2)2; assay: X-ray crystal structure, […] Å; settings: crystal co-crystallized and soaked with ATP only; ADO and PO4 at active site; Mg
MAT(α2)4(βV2)2 [3] = biological target: T1, MAT(α2)4(βV2)2; assay: X-ray crystal structure, […] Å; settings: active site at MATα2 dimer interface; Mg; two of four sites occupied; SAMe also in 4ndn
MATβV2 = biological target: T2, MATβV2 (Homo sapiens, UniProt Q9NZL9); assay: ITC; settings: read-out: NADP → MATβV2
T2 construct: gene MAT2B; recombinant in E. coli BL21(DE3), pET-28a(+); His tag cut with thrombin; free subunit
T2 sequence (Q9NZL9 1-323 isoform Q9NZL9-2): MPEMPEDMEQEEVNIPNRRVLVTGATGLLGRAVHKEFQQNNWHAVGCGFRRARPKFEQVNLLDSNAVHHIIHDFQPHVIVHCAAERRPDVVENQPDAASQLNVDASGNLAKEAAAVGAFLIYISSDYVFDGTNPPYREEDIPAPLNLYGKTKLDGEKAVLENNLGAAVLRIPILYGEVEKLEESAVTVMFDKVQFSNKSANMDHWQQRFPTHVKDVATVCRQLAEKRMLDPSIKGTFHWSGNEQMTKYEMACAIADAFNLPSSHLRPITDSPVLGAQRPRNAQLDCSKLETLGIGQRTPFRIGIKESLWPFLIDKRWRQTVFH

MATβV1 = biological target: T3, MATβV1 (Homo sapiens, UniProt Q9NZL9); assay: ITC; settings: read-out: NADP → MATβV1
T3 construct: gene MAT2B; recombinant in E. coli BL21(HC41), HIS-parallel vector; His tag cut with TEV protease; free subunit
T3 sequence (Q9NZL9 whole entry): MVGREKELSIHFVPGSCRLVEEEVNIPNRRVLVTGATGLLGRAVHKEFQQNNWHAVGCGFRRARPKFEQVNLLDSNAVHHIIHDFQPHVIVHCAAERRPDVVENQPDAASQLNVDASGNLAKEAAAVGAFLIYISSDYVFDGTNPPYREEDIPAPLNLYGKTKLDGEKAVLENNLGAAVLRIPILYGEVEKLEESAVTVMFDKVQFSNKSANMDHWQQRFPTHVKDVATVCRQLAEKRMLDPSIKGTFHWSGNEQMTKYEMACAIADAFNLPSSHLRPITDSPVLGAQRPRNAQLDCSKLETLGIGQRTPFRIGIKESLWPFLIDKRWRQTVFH

## O=P(O)(O)NP(=O)(O)OP(=O)(O)O [PPNP]
MAT(α2)4(βV2)2 [1]
  X-ray crystal structure, 2.35 Å: Crystal co-crystallized and soaked with AMPPNP and methionine shows SAMe and PPNP

## Nc1ncnc2c1ncn2[C@@H]1O[C@H](CO)[C@@H](O)[C@H]1O [adenosine]
MAT(α2)4(βV2)2 [2]
  X-ray crystal structure, 3.3 Å: shows adenosine molecule (ADO) and PO4 at the active site

## C[S+](CC[C@H](N)C(=O)O)C[C@H]1O[C@@H](n2cnc3c(N)ncnc32)[C@H](O)[C@@H]1O (some centres unmarked) [SAMe]
MAT(α2)4(βV2)2 [3]
  X-ray crystal structure, 2.6 Å: the presence of SAMe, adenosine (ADO) or PPNP

## NC(=O)c1ccc[n+]([C@@H]2O[C@H](COP(=O)(O)OP(=O)(O)OC[C@H]3O[C@@H](n4cnc5c(N)ncnc54)[C@H](OP(=O)(O)O)[C@@H]3O)[C@@H](O)[C@H]2O)c1 [NADP]
MATβV2
  Kd: 8.93 µM
MATβV1
  Kd: 8.55 µM
